Common to all, as to test: DTP human tumour cell line panel, 48 h
Test [1] has as its system 786-0 renal.
Test [2] deals with HOP-92 NSCLC.
Test [3] relates to MALME-3M melanoma.
Test [4] concerns HCT-15 colon.
The test system of test [5] is TK-10 renal.
The test system of test [6] is U251 CNS.
The subject of test [7] is SF-268 CNS.
Test [8] concerns BT-549 breast.
For test [9], the system named is MOLT-4 leukemia.
The test system of test [10] is OVCAR-5 ovarian.

Where “and” joins values, the source holds several entries; their conditions need not be identical. Identical values can stand only once.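 Cultured in 96-well plates, cells were exposed to test compound for 48 hours across five concentrations. GI50: concentration for 50% inhibition of growth. The concentration for full growth arrest is given as TGI.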

In PubChem BioAssay (NCI) one finds GI50 and TGI data, which are given here for eight compounds.

As usually defined, the GI50 is the concentration giving 50% growth inhibition. What is called TGI is the concentration giving total growth inhibition. A lower TGI goes with greater sensitivity of the cells.

Turning to `CC(=O)/C(=C\c1c(-c2ccccc2)[nH]c2ccccc12)S(=O)(=O)c1ccccc1`, the GI50 is 1620 nM in test [1]; 3660 nM in test [2]; 1980 nM in [3]; 834 nM in test [4]; 3440 nM in test [5]; 1200 nM in test [6]. The GI50 is 3350 nM in test [7], 1760 nM in [8], 1350 nM in test [9] and 2010 nM in [10]. Moreover, the concentration for total growth inhibition (TGI) was 3440 nM in test [1]; 15400 nM in test [2]; 9190 nM in [3]; 3210 nM in test [4]; greater than 41100 nM in [5]; 3620 nM in [6]. The total growth inhibition concentration (TGI) in test [7] is 31100 nM; in test [8], 11000 nM; in [9], 6390 nM; in test [10], 5460 nM.

Regarding `Cc1cc(O)cc(C)c1/C=C/c1cncc(C(=O)OC(C)(C)C)c1`, the GI50 in test [1] was 19100 nM; in [2], 4010 nM; in [3], greater than 16600 nM; in [4], 11500 nM; in test [5] it was greater than 23500 nM; in [6], 14900 nM. Moreover, the GI50 in [7] was 20700 nM; in test [8], greater than 20800 nM; in test [9] it was 15000 nM; in [10] it was greater than 25000 nM. In addition, the TGI in [1] was greater than 25000 nM; in test [2] it was 18800 nM; in [3], greater than 25000 nM; in test [4], greater than 25000 nM; in [5] it was greater than 25000 nM; in test [6], greater than 25000 nM. For the same compound, the concentration for total growth inhibition (TGI) in [7], in test [8], in test [9] and in test [10] was greater than 25000 nM each time.

For the compound `CN1CCN(c2ccc(C(=O)Nc3cccc(C#Cc4cccc5[nH]nc(N)c45)c3)cc2C(F)(F)F)CC1`, the GI50 was 2050 nM in test [1]; 1020 nM in test [2]; 651 nM in test [3]; 644 nM in test [4]; 1100 nM in test [5]; 707 nM in test [6]. The GI50 in [7] is 1210 nM; in [8] it was 3360 nM; in test [9], 645 nM; in test [10] it was 959 nM. For the same compound, the concentration for total growth inhibition (TGI) in test [1] stood at 5040 nM; in test [2] it was 4070 nM; in test [3], 1620 nM; in test [4] it was 1270 nM; in test [5], 3240 nM; in [6] it was 1950 nM. Further, the TGI was determined as 4850 nM in test [7], 7680 nM in test [8], 1570 nM in [9] and 3270 nM in [10].

As to `CN(C)c1ccc(C(=C2C=CC(=[N+](C)C)C=C2)c2ccccc2Cl)cc1`, the GI50 in test [1] was 341 nM; in [2], 302 nM; in test [3] it was 266 nM; in test [4], 717 nM; in test [5], 345 nM; in test [6], 127 nM. In addition, the GI50 was 379 nM in test [7], 373 nM in test [8], 593 nM in [9] and 408 nM in test [10]. In addition, the TGI in test [1] was found to be 1130 nM; in test [2] it was 1350 nM; in test [3], 1050 nM; in [4], 4960 nM; in [5], 1410 nM; in test [6], 1140 nM. Moreover, the TGI in test [7] turned out to be 1410 nM; in test [8] it was 2560 nM; in [9] it was 12900 nM; in [10] it was 1480 nM.

As to `COc1ccc(/C(=N/O)c2cc(OC)c(OC)c(OC)c2)c(OC)c1N`, the GI50 in [1] is 12700 nM; in test [2], greater than 100000 nM; in [3], 4220 nM; in test [4] it was 3870 nM; in test [5], greater than 100000 nM; in test [6], 5650 nM. Moreover, the GI50 in [7] is 14600 nM; in test [8], 8790 nM; in test [9], 6940 nM. The TGI in test [1], in test [2], in test [3], in [4], in [5] and in test [6] was greater than 100000 nM throughout. Also, the TGI in [7], in test [8] and in test [9] was greater than 100000 nM throughout.

Consider `CCCC#CCOC(=O)c1cc([N+](=O)[O-])cc([N+](=O)[O-])c1`, for which the TGI in test [1] was greater than 100000 nM; in test [2], greater than 100000 nM; in [3], 69100 nM; in test [4], greater than 100000 nM; in test [5] it was greater than 100000 nM; in [6], greater than 100000 nM. For the same compound, the TGI in test [7], in test [8], in test [9] and in test [10] was greater than 100000 nM each time.

In the case of `O=C1N[C@H]2[C@H](O)[C@H](O)[C@@H](O)[C@H](O)[C@@H]2c2cc3c(c(O)c21)OCO3`, the GI50 in [1] is 324 nM and 39.6 nM; in test [2], 333 nM; in test [3], 266 nM and 275 nM; in test [4], 462 nM; in test [5] it was 56.1 nM; in test [6] it was 156 nM and 187 nM. Further, the GI50 in [7] is 269 nM and 1360 nM; in [8] it was 18.7 nM; in test [9] it was 196 nM and 575 nM; in test [10], 657 nM and 1160 nM. Further, the concentration for total growth inhibition (TGI) in test [5] was 3550 nM and 1690 nM; in test [8], 68.4 nM and 142 nM; in test [10] it was 9370 nM and 1220 nM.

Regarding `CC1(C)N=C(N)N=C(N)N1c1ccc(Cl)c(Cl)c1`, the GI50 in test [1] was 72 nM; in [2] it was 47100 nM; in test [3] it was 32000 nM; in test [4] it was 1370 nM; in test [6], 88.7 nM; in test [7], 56.6 nM. The GI50 was 6660 nM in test [8], 1380 nM in test [9] and 252 nM in [10]. For the same compound, the TGI in test [1], in test [2], in test [3], in test [4], in test [5] and in test [6] was greater than 100000 nM in each case. The TGI in test [7], in test [8], in test [9] and in [10] was greater than 100000 nM in each case.
